Data reported in patent US20210052600A1, “THERAPEUTIC AGENTS FOR STRESS URINARY INCONTINENCE AND INCOTINENCE OF FECES” (Takeda Pharmaceutical Company Limited, priority 2017, published 2021).

What was measured:
[1] = test system: anus-closing function increasing effect of Compound A′; assay: Influence of SB 242084 on Compound A′-induced rat anus-closing function increasing effect (Anal LPP); type: in vivo; conditions: vehicle i.v. then Compound A′ 1 mg/kg i.v.; 5 minutes after Compound A′; n=9
Experimental: Eighteen female SD rats were used. After overnight fasting, rats were intraperitoneally administered with urethane for anesthesia, and isoflurane inhalation was added during surgery. The abdomen was incised to expose the rectum, and a small incision of the rectum was made. A polyethylene catheter (SP61, Natsume) was inserted into the rectum through the rectum incision, and the tip of the catheter was positioned around 5 mm from the anal orifice. The other end of the catheter was connected with a pressure transducer and an infusion pump via three-way stopcocks, and the change in pressure in the rectum was measured using the pressure transducer, an electric signal amplifier, and an analog-to-digital converter. For administrating drugs, a polyethylene catheter (SP45, Natsume) was inserted into the femoral vein after exposing the vein by small incision.
After recovery period from surgery, while saline was infused at a speed of 0.1 mL/sec into the rectum using an infusion pump, change in the measured pressure—was observed. […] The peak value of the pressure recorded in the rectum during the course of the procedures was defined as “an Anal LPP” in this Example. […] The Anal LPP was again measured in the same way 5 minutes after the administration with Compound A′. The difference in Anal LPP from the Pre value (increased amount of Anal LPP) was calculated. […]

urethra-closing response = assay: MT (threshold inducing urethra-closing response) under transcranial magnetic stimulation in healthy female volunteers; type: in vivo, human
Experimental: The test subjects were healthy female volunteers having a body weight of at least 45 kg (average: 50.91 kg, standard deviation: 3.346) and a BMI value of 18.5 kg/m^2 to 25.0 kg/m^2 (average: 19.57 kg/m^2, standard deviation: 0.929).
A washout period of at least 7 days was provided between the treatments.
A capsule containing 40 mg of duloxetine was orally administered as duloxetine together with water. A placebo capsule containing saccharose and spherical starch granules was orally administered as a placebo for duloxetine together with water.
Specifically, during the TMS, the output of a magnetic stimulator (Magstim Rapid Square, manufactured by Magstim Co., Ltd.) was increased by 5% each time using 110 mm double cone coil, and the minimum output at which urethra-closing response occurred abruptly was determined and used as MT (%). The urethra-closing response was detected by measuring contractile responses within the urethra. The contractile response within the urethra was measured using Duet Logic G2 (manufactured by Mediwatch Ltd.) and UniTip (manufactured by Unisensor AG). MT was measured again after administration of each drug, and the rate of change (%) from the baseline was calculated. The rate of change was determined by dividing MT after administration of each drug by MT before administration.

In the case of `CC(C)N(C)c1cnc2c(n1)OCCNC2.Cl` [Compound A′, N-methyl-N-(1-methylethyl)-6,7,8,9-tetrahydropyrazino[2,3-f][1,4]oxazeine-3-amine], the “Anal LPP Increase” value [1] is reported as 9.2±3.0 cmH2O, the “maximum change from baseline in MT in response to TMS” value (urethra-closing response; 20 mg group, at 0.5 hours post dose) is reported as −8.1% and the “MT of the urethra-closing response in response to TMS, Mean” value (urethra-closing response; 20 mg single oral dose, 0.5 hr) is reported as 58.1%. For the same compound, the “Rate of change from baseline of MT of the urethra-closing response in response to TMS, Mean” value (“Rate of change” below) (urethra-closing response; 20 mg single oral dose, 0.5 hr) was −8.1%, the “MT of the urethra-closing response in response to TMS, Mean” value (urethra-closing response; 20 mg single oral dose, 2 hr) was 59.0% and the “Rate of change” value (urethra-closing response; 20 mg single oral dose, 2 hr) was −7.3%. For the same compound, the “MT of the urethra-closing response in response to TMS, Mean” value (urethra-closing response; 20 mg single oral dose, 6 hr) was 64.2%, the “Rate of change” value (urethra-closing response; 20 mg single oral dose, 6 hr) was −2.1% and the “MT of the urethra-closing response in response to TMS, Mean” value (urethra-closing response; 20 mg single oral dose, Predose) was 66.3%. For the same compound, the “maximum change from baseline in MT in response to TMS” value (urethra-closing response; 90 mg group, at 3 hours post dose) was −17.2%, the “MT of the urethra-closing response in response to TMS, Mean” value (urethra-closing response; 90 mg single oral dose, 0.5 hr) was 55.9% and the “Rate of change” value (urethra-closing response; 90 mg single oral dose, 0.5 hr) was −14.1%. For the same compound, the “MT of the urethra-closing response in response to TMS, Mean” value (urethra-closing response; 90 mg single oral dose, 2 hr) was 52.8%, the “Rate of change” value (urethra-closing response; 90 mg single oral dose, 2 hr) was −17.2% and the “MT of the urethra-closing response in response to TMS, Mean” value (urethra-closing response; 90 mg single oral dose, 6 hr) was 56.3%. The “Rate of change” value (urethra-closing response; 90 mg single oral dose, 6 hr) was −13.7% and the “MT of the urethra-closing response in response to TMS, Mean” value (urethra-closing response; 90 mg single oral dose, Predose) was 70.0%.
